Test results published in paper PMC6199744, “Development of Chemical Proteomics for the Folateome and Analysis of the Kinetoplastid Folateome” (ACS Infectious Diseases, 2018).
Read-outs that look alike come from different tables or passages of the source.

Legend:
Type in all cases: binding
[1] = target: T1, HeLa cell extract proteins (Homo sapiens, UniProt Q9NVI7)
T1 construct: endogenous in cells; host or cells: HeLa cell extract
T1 sequence (Q9NVI7 1-586): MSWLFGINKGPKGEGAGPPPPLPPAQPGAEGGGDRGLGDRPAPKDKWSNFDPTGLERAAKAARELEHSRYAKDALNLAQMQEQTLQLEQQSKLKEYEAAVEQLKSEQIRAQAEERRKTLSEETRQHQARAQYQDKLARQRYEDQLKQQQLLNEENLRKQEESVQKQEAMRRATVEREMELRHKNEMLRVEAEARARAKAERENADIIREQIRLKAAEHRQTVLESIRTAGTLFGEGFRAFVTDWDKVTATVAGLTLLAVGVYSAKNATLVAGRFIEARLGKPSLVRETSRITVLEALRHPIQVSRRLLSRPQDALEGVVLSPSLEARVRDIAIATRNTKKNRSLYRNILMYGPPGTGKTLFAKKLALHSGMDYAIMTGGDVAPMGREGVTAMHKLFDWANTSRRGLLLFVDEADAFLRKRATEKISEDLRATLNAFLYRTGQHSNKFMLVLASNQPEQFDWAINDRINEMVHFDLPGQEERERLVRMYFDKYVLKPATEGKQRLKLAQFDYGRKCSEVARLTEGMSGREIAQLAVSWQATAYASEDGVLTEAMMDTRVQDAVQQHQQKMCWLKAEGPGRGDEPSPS

[2] = target: T2, HeLa cell extract proteins (Homo sapiens, UniProt Q9NTG7)
T2 construct: endogenous in cells; host or cells: HeLa cell extract
T2 sequence (Q9NTG7 1-399): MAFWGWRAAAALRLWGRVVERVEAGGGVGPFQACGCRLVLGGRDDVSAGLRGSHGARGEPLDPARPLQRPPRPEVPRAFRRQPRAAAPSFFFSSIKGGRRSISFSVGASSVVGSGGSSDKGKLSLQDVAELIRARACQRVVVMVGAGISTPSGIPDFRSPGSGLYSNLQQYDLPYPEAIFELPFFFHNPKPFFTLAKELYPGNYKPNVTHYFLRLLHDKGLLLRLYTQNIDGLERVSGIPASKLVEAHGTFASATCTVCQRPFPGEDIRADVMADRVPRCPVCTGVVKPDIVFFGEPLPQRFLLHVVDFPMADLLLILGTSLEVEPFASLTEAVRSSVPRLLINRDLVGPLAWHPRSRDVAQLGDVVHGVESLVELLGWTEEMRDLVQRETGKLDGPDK

[3] = target: T3, HeLa cell extract proteins (Homo sapiens, UniProt O00148)
T3 construct: endogenous in cells; host or cells: HeLa cell extract

[4] = target: T4, HeLa cell extract proteins (Homo sapiens, UniProt O95487)
T4 construct: endogenous in cells; host or cells: HeLa cell extract
T4 sequence (O95487 1-1268): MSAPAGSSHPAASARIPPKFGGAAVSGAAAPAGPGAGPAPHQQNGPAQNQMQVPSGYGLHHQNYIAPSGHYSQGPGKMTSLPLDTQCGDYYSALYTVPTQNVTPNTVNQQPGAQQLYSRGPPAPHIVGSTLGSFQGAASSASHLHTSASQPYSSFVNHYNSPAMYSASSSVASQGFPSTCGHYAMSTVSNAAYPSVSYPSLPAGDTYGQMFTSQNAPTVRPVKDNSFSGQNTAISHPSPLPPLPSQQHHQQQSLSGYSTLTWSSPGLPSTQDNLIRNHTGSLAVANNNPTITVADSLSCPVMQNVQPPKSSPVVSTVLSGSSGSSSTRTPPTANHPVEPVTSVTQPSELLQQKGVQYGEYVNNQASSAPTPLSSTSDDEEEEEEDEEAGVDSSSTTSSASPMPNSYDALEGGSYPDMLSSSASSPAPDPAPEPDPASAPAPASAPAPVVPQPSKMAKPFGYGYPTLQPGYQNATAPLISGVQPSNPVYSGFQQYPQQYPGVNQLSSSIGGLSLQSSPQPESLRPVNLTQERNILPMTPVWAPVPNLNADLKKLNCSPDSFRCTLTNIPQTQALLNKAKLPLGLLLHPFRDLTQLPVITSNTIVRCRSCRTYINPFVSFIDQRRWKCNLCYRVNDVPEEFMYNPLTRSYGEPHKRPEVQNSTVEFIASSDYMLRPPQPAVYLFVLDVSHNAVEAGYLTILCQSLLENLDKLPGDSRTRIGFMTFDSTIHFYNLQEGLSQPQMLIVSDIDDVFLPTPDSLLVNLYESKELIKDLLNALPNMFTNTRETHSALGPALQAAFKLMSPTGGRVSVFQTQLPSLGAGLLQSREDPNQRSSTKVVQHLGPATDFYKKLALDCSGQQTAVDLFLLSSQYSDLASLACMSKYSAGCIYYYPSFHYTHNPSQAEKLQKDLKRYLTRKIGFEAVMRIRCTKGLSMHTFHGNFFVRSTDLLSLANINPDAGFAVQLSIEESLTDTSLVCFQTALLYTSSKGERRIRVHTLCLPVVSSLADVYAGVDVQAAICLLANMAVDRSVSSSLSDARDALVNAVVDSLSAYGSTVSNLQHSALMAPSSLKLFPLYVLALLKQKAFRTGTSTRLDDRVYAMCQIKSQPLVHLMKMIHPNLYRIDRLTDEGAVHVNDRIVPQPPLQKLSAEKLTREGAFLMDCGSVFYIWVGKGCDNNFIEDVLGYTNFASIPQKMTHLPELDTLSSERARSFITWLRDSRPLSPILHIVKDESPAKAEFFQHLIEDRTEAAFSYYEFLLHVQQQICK

[5] = HeLa, protein DDX39 (CDNA FLJ55484, HIGHLY SIMILAR TO ATP-DEPENDENT RNA HELICASE DDX39.)

T3 sequence (O00148 whole entry): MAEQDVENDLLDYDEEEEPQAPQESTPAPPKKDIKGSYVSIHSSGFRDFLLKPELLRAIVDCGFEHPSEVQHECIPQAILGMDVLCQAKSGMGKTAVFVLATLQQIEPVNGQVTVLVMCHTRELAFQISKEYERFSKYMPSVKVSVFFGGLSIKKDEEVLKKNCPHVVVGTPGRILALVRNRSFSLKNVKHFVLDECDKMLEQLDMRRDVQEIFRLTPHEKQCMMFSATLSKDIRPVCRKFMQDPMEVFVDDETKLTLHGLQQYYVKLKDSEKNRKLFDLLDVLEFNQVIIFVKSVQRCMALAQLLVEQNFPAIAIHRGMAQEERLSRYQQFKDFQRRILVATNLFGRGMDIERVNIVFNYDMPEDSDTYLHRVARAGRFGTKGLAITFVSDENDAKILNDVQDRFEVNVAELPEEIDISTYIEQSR

Compound	fold changes relative to vehicle control ([1]; HeLa, protein ATAD3A)	fold changes relative to vehicle control ([2]; protein SIRT3, HeLa)	fold changes relative to vehicle control [3, 5] [fold]	fold changes relative to vehicle control ([4]; protein SEC24B, HeLa)	fold changes relative to vehicle control ([2]; HeLa, captured protein SIRT3)	fold changes relative to vehicle control ([3]; HeLa, protein DDX39)	fold changes relative to vehicle control ([4]; HeLa, captured protein SEC24B)	fold changes relative to vehicle control [1]	fold changes relative to vehicle control [2]	fold changes relative to vehicle control [3]	fold changes relative to vehicle control [4]
Nc1nc2cccc(-c3ccccc3)c2n1Cc1ccc(Cl)c(Cl)c1 [compound 3]	1.05	1.16	0.86	1.01	–	–	–	–	–	–	–
CCCCCCOc1ccc(Cc2cnc(N)nc2N)cc1 [compound 1]	1.13	1	1.22	1.05	–	–	–	–	–	–	–
NCCCNc1ccc(C(=O)NC(CCC(=O)O)C(=O)O)cc1 (stereo not shown) [compound 7]	1.13	–	–	–	0.92	0.88	1.06	–	–	–	–
CCCCCCOc1cccc(Cc2cnc(N)nc2N)c1 [compound 2]	1.15	1	2.4	1.15	–	–	–	–	–	–	–
NCCOCCOCC(=O)Nc1nc2ncc(CNc3ccc(C(=O)NC(CCC(=O)O)C(=O)O)cc3)nc2c(=O)[nH]1 (stereo not shown) [compound 6]	1.17	–	–	–	0.77	1.17	0.94	–	–	–	–
Nc1nc2[nH]cc(CCc3ccc(C(=O)N[C@@H](CCC(=O)O)C(=O)O)cc3)c2c(=O)[nH]1 [PTX, pemetrexed]	–	–	–	–	–	–	–	1.12	0.95	0.99	0.94
Nc1nc2c(c(=O)[nH]1)N(C=O)C(CNc1ccc(C(=O)N[C@@H](CCC(=O)O)C(=O)O)cc1)CN2 (stereo partly shown) [LEU, leucovorin]	0.98	–	–	–	1	1.07	1.06	–	–	–	–
